Measurements published in PubChem BioAssay (NCI).
Where “and” joins values, the source holds several entries; their conditions need not be identical. Equal values may be shown once.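 Tested at 5 concentrations; 48 h exposure; 96-well plates; endpoints linearly interpolated, else capped at highest concentration. GI50: concentration for 50% inhibition of growth. The concentration for full growth arrest is given as TGI.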

Experiments:
Test in all cases: inhibition of tumour cell growth, NCI panel, 48 h
[1] = system: SK-MEL-5 melanoma
[2] = system: SK-OV-3 ovarian
[3] = system: IGROV1 ovarian
[4] = system: CAKI-1 renal
[5] = system: ACHN renal
[6] = system: HCT-116 colon
[7] = system: NCI-H522 lung
[8] = system: LOX IMVI melanoma
[9] = system: SF-539 CNS
[10] = system: T-47D breast
[11] = system: HL-60(TB) leukemia

| SMILES | GI50 [1] | TGI [1] | GI50 [2] | TGI [2] | GI50 [3] | TGI [3] | GI50 [4] | TGI [4] | TGI [5] | TGI [6] | TGI [7] | TGI [8] | TGI [9] | TGI [10] | TGI [11] | GI50 [11] | GI50 [6] | GI50 [8] | GI50 [9] | GI50 [7] |
| --- | --- | --- | --- | --- | --- | --- | --- | --- | --- | --- | --- | --- | --- | --- | --- | --- | --- | --- | --- | --- |
| Cc1cc(NCc2cc(Nc3ccnc4cc(Cl)ccc34)ccc2F)nc(N2CCCC2)n1 | 1760 nM | 3.19 µM | 2.04 µM | 5.09 µM | 1.69 µM | 4.2 µM | 1.47 µM | 2.98 µM |  |  |  |  |  |  |  |  |  |  |  |  |
| CC12CCC(C(=O)OC1=O)C(C)(C)O2 (centres undefined) |  | > 100 µM |  | > 100 µM |  | > 100 µM |  | > 100 µM | > 100 µM | > 100 µM | > 100 µM | > 100 µM | > 100 µM | > 100 µM |  |  |  |  |  |  |
| CN(C)CCNc1nc(-c2ccc3ccccc3c2)nc2nc[nH]c12 |  | 25 µM |  | 20.8 µM |  | 15.4 µM |  | 20.6 µM | 11.9 µM | 24.6 µM | 6.22 µM | 18.8 µM |  | 29.7 µM | > 100 µM |  |  |  |  |  |
| C/C=C/[P+](c1ccccc1)(c1ccccc1)c1ccccc1 |  | 9.54 µM |  | 10.5 µM |  | 18.1 µM |  | > 100 µM | 62.5 µM | 20.6 µM | 10.2 µM | 7.26 µM | 16.7 µM | 1.43 µM | 2.78 µM |  |  |  |  |  |
| Cc1c2cc[n+](CCN3CCCCC3)cc2c(C)c2c1[nH]c1ccc(O)cc12 |  | 31.2 µM and 11.1 µM | 4.42 µM | 33.9 µM and 31.2 µM | 4.43 µM | 38.1 µM and 30.4 µM | 21.1 µM | 24.3 µM and > 100 µM | 22.9 µM | 24.1 µM and 26.1 µM | 53.5 µM and 16.2 µM | 58.2 µM and 76.2 µM | 34.5 µM and > 58.8 µM | 12.1 µM | 26.5 µM and > 40.4 µM | 3.67 µM | 4.75 µM | 8.69 µM | 7.38 µM |  |
| Cc1ccc(Oc2ccc(C)cc2[N+](=O)[O-])cc1 |  | 92.6 µM |  | > 100 µM |  | > 100 µM |  |  | > 100 µM | > 100 µM |  | > 100 µM | > 100 µM |  | 79.7 µM |  |  |  |  |  |
| O=S(=O)(Sc1ccc(Cl)cc1)c1ccc(Cl)cc1 |  | 28.6 µM |  | 85.2 µM |  | 31.1 µM |  | 40.5 µM | 31.2 µM | 28.6 µM | 31.1 µM | 24.8 µM | 27.7 µM |  | 33 µM |  |  |  |  |  |
| COc1ccc([C@@H]2ON(C)[C@H]3CN(C)C(=O)[C@@H]23)cc1 |  | > 100 µM |  | > 100 µM |  | > 100 µM |  | > 100 µM | > 100 µM | > 100 µM | > 100 µM | > 100 µM |  | > 100 µM | > 100 µM |  |  |  |  |  |
| CCCCCCNC(=O)c1cnc(Cl)cn1 |  | 30.4 µM |  | 66 µM |  | 22.8 µM |  | 2.39 µM | 8.49 µM | 30.7 µM | 0.552 µM | 27.7 µM | 35.4 µM | > 100 µM | 47.8 µM |  |  |  |  |  |
| Cc1sc(Cc2ccccc2)nc1-c1ccc(N)cc1 |  | 35.6 µM |  |  |  | 89.8 µM |  | 83.8 µM | > 100 µM | 40.7 µM | 38.7 µM | 29.8 µM |  |  | > 100 µM |  |  |  |  |  |
| COc1ccc(N2C(=O)C3c4[nH]c5c(C)cccc5c4C4CCC(C(C)(C)C)CC4C3C2=O)cc1 (centres undefined) |  | > 10 µM |  | > 10 µM |  | > 10 µM |  | > 10 µM | > 10 µM | > 10 µM | > 10 µM | 4.17 µM | > 10 µM | > 10 µM | > 10 µM |  |  |  |  |  |
| NC(=O)CCCC(NCc1c2ccccc2nc2ccccc12)C(=O)O (centres undefined) |  | > 100 µM |  | > 100 µM |  | > 100 µM |  | 96.2 µM | > 100 µM |  | 67.7 µM | > 100 µM | > 100 µM |  | 62.2 µM |  |  |  |  |  |
| Cc1ccccc1N=Nc1ccc(N=Nc2c(O)ccc3ccccc23)c(C)c1 |  | > 100 µM |  | > 100 µM |  | > 100 µM |  | > 100 µM | > 100 µM | > 100 µM | > 100 µM | > 100 µM |  | > 100 µM |  |  |  |  |  |  |
| NC(=O)NN=C(CS)CS |  | 32.8 µM |  | > 100 µM |  | > 100 µM |  | 42.9 µM |  | > 100 µM | 55.2 µM | 40.3 µM | 40.7 µM |  | 2.52 µM |  |  |  |  |  |
| CN(C)CCCNc1ccc2ncn3c4ccccc4c(=O)c1c23 |  |  |  | > 100 µM |  | 33 µM |  |  | 52.5 µM | 15.1 µM | > 100 µM | 13.7 µM | 90.8 µM |  | 21.2 µM |  |  |  |  |  |
| CCOC(=O)/C(Cl)=C(\C)Nc1nc2c(ccc3ccccc32)s1 |  | > 100 µM |  | > 100 µM |  | > 100 µM |  | > 100 µM | > 100 µM | > 100 µM | 70.9 µM |  |  | 43.6 µM | > 100 µM |  |  |  |  |  |
| O=c1ccc2cc(O)c(O)cc2o1 |  | > 100 µM |  | > 100 µM |  | > 100 µM |  | > 100 µM | > 100 µM | > 100 µM | > 100 µM | > 100 µM | > 100 µM | > 100 µM | > 100 µM |  |  |  |  |  |
| CC(=O)C(O)N1C(=O)C=CC1=O (centres undefined) |  |  |  |  |  |  |  |  |  |  |  |  |  | > 25 µM |  |  |  |  |  | > 25 µM and 13.5 µM |
| CCCCCCCSc1nc2c(C(=O)OCC)ncn2c2ccccc12 |  |  |  | > 100 µM |  | > 100 µM |  |  | > 100 µM | > 100 µM |  | > 100 µM |  |  | > 100 µM |  |  |  |  |  |
| CN(C)c1ccc(/C=N\NC(=O)CSCC(=O)N/N=C/c2ccc(N(C)C)cc2)cc1 |  | > 100 µM |  | > 100 µM |  | > 100 µM |  | > 100 µM | > 100 µM | > 100 µM | > 100 µM | > 100 µM | > 100 µM | 88.6 µM | > 100 µM |  |  |  |  |  |
| COc1ccc(-c2c3c(nc4nc(SCCc5ccccc5)nc(N)c24)CCCC3)cc1OC |  | > 100 µM |  | > 100 µM |  | > 100 µM |  | > 100 µM | > 100 µM | > 100 µM |  | > 100 µM | > 100 µM | > 100 µM | > 100 µM |  |  |  |  |  |
| CC1C(O)C2(Oc3cc4c(c5c3[C@@H](CC5O)[C@H]2C)CCC2Cc3nc5c(nc3C[C@@]42C)CC2CCC3C4=C[C@H]6O[C@@]7(O[C@@](C)(CO)C[C@@H]7O)C(C)[C@@]6(O)[C@]4(C)[C@@H](O)CC3[C@]2(C)C5)OC1(C)C (some centres undefined) |  | > 3.67 µM |  | 0.502 µM |  | 0.894 µM |  | 0.975 µM |  | 1.02 µM | 0.42 µM | 0.892 µM | 0.302 µM |  | 0.177 µM |  |  |  |  |  |
| N#CC(c1ccccc1)c1nc2ccc(=N)cc-2n(O)c1C(C#N)c1ccccc1 (centres undefined) |  |  |  | > 100 µM |  | > 100 µM |  | > 100 µM | > 100 µM | > 100 µM | > 100 µM | > 100 µM | > 100 µM |  | > 100 µM |  |  |  |  |  |
| Cc1ccc(S(=O)(=O)NCCSCCNS(=O)(=O)c2ccc(C)cc2)cc1 |  | > 100 µM |  | > 100 µM |  |  |  |  | > 100 µM | > 100 µM | > 100 µM | > 100 µM |  | > 100 µM |  |  |  |  |  |  |
